Experimental data from US10682372B2, “Intracellular ATP enhancer” (StaGen Co., Ltd., priority 2015, dated 2020).

Key:
[1] = tested on: model mouse of amyotrophic lateral sclerosis; conditions: model mouse of ALS; cited from earlier work
[2] = high-dose administration; cited from earlier work
[3] = Clinical test Phase II: urinary purine concentration; format: in vivo, Human
[4] = First administration test: serum uric acid value (uricase-peroxidase method); format: in vivo, Human
Protocol: For a clinical chemistry automatic analyzer, a dry clinical chemistry analysis measuring unit manufactured by ARKRAY, Inc. was used, and the serum uric acid value was measured by using the uricase-peroxidase method. A first clinical test was conducted by first administering febuxostat at 40 mg/day (single administration of febuxostat), after a while, additionally administering inosine (combined administration of febuxostat and inosine), and gradually increasing the dosage of inosine from 0.5 to 3 g/day. Meanwhile, blood was collected at the timing shown on the horizontal axis of FIG. 2 to measure the serum uric acid value.

[5] = Clinical test Phase II: urinary uric acid concentration/creatinine concentration; format: in vivo, Human; conditions: Week 0 to Week 2
Protocol: Since the urinary uric acid concentration varies with urine volume, a urinary uric acid amount was evaluated by using a urinary uric acid/creatinine value acquired by dividing by urinary creatinine concentration. The measurement method of the uric acid value was the same as Test Example 1.
(§1) The following administration test was conducted for 16 Japanese healthy adult males, one subject in Phase I and 15 subjects which divided into Groups of A to E for each groups 3 subjects in phase II.
(§2) After the end of Phase I, administration was performed to three subjects of each of the groups as follows:
(§3) Group A: febuxostat 20 mg twice a day for 14 days;
(§4) Group B: inosine 500 mg twice a day for 14 days;
(§5) Group C: febuxostat 20 mg+inosine 500 mg twice a day for 14 days;
(§6) Group D: febuxostat 20 mg+inosine 1000 mg twice a day for 14 days; and
(§7) Group E: febuxostat 30 mg twice a day for 14 days.

[6] = Clinical test Phase II: blood purine concentration; format: in vivo, Human; conditions: for ATP concentration in blood, change: Week 0 to Week 2; for inosine concentration in blood, change: any groups (Groups A to E)
Protocol: Various purines in peripheral blood were measured according to Reference (1). Briefly, peripheral blood was collected with EDTA, mixed with 500 μL+500 μL ice cold 8% PCA, immediately vortexed for five seconds, and centrifuged at 12,000×g for 10 minutes at 4° C., and the supernatant was stored at −80° C. The sample was dissolve in a gathered state, and 40 μL of 2M K2CO3 in 6 M KOH was added to 650 μL of the solution to precipitate PCA and neutralize the solution at the same time. After this solution was centrifuged at 12,000×g for 10 minutes at 4° C., 160 μL of a mobile phase was added to 40 μL of supernatant and apply to HPLC. The conditions of HPLC were also set according to Reference (1) below. The amounts of purines are expressed in molar quantity contained in 1 L of whole blood.
as §1, §2, §3, §4, §5, §6, §7

[7] = Second administration test: serum uric acid value, single and combined administration; format: in vivo, Human
Protocol: (1) The subject of administration was the same as Test Example 1.
After a sufficient period had elapsed from completion of Test Example 1, febuxostat was administered again at 40 mg/day to the patient, and the serum uric acid value was measured three days later. Subsequently, febuxostat was discontinued and, after a while, administration of 2 g/day of inosine was started (administered at 1 g each after breakfast and dinner) and was followed by combined use of 2 g/day of inosine and 40 mg of febuxostat (administered at 20 mg each after breakfast and dinner). The serum uric acid value was measured at time points shown on the horizontal axis of FIG. 4.

[8] = Clinical test Phase II: serum uric acid value; format: in vivo, Human
Protocol: as §1, §2, §3, §4, §5, §6, §7

[9] = in vivo; cited from earlier work
erythrocytes = erythrocytes kept at low temperature for 20 to 30 days, one hour after addition of inosine; cited from earlier work
[10] = in vivo; cited from earlier work; remark: listed apart in the source
[11] = Week 0 to Week 2, single administration of febuxostat
[12] = Group A febuxostat 40 mg/day alone
[13] = febuxostat 60 mg/day single administration
[14] = Week 0 to Week 2, single administration of inosine

Oc1ncnc2[nH]ncc12 [allopurinol]
disease progression of amyotrophic lateral sclerosis [1]: did not inhibit the disease progression | symptoms of chronic stable angina [2]: suppressed

Cc1nc(-c2ccc(OCC(C)C)c(C#N)c2)sc1C(=O)O [febuxostat]
disease progression of amyotrophic lateral sclerosis [1]: inhibits disease progression | maximum concentration of urinary X ([3]; Group A: febuxostat 20 mg twice a day): 556.0 µM | maximum concentration of urinary X ([3]; Group E: febuxostat 30 mg twice a day): 867.7 µM | urinary Hx, change [3, 11]: moderate rise | urinary X concentration, change [3, 11]: significantly increased | serum uric acid value ([4]; febuxostat 40 mg/day single administration, 2014.07.12, 8.4 mg/dL before (2014.07.05)): 4.7 mg/dL | serum uric acid value ([4]; febuxostat 40 mg/day, 0 g inosine, 2014.08.23): 4.9 mg/dL | reduction of serum uric acid value ([4]; febuxostat 40 mg/day, previous (first) test): 3.7 mg/dL | urinary uric acid/creatinine, change ([5]; febuxostat alone (Groups A and E)): reduced | Hx (hypoxanthine) concentration in blood, change [6, 12]: unchanged | X (xanthine) concentration in blood, change [6, 12]: significantly increased | ATP concentration in blood, change ([6]; Group A febuxostat 40 mg/day): not changed | ATP concentration in blood, change ([6]; Group E febuxostat 60 mg/day): No certain tendency was observed | inosine concentration in blood, change [6]: no rise | Hx (hypoxanthine) concentration in blood, change [6, 13]: slight rise | X (xanthine) concentration in blood, change [6, 13]: rise | suppression by febuxostat of the serum uric acid increasing action of inosine ([7]; febuxostat 40 mg/day, remaining share of the increase): 22.4% | reduction of serum uric acid value ([7]; three days from febuxostat 40 mg/day): 3.4 mg/dL | serum uric acid value ([7]; three days from febuxostat 40 mg/day (20150515), 8.2 mg/dL before (20150501)): 4.8 mg/dL | reduction of serum uric acid value ([8]; Group A: febuxostat 20 mg twice a day for 14 days): 2.53 mg/dL | reduction of serum uric acid value ([8]; Group E: febuxostat 30 mg twice a day for 14 days): 3.93 mg/dL | serum uric acid value, lowest observed ([8]; Group E: febuxostat 60 mg/day): less than 2 mg/dL | serum uric acid value, lower limit observed ([8]; any of the administration examples of 40 mg/day of febuxostat): ≥ 2 mg/dL

OC[C@H]1O[C@@H](n2cnc3c(O)ncnc32)[C@H](O)[C@@H]1O [inosine]
maximum concentration of urinary X ([3]; Group B: inosine 500 mg twice a day): 61.9 µM | urinary Hx, change [3, 14]: no rise | urinary X, change [3, 14]: no rise | symptoms of Parkinson's disease [9]: alleviates symptoms | urinary uric acid/creatinine, change ([5]; Group B inosine alone): significantly increased | Hx (hypoxanthine) concentration in blood, change ([6]; Group B inosine 1 g/day alone): neither Hx nor X changed | X (xanthine) concentration in blood, change ([6]; Group B inosine 1 g/day alone): neither Hx nor X changed | ATP concentration in blood, change ([6]; Group B inosine 1 g/day): not changed | inosine concentration in blood, change [6]: no rise | serum uric acid value ([7]; inosine 2 g/day (1 g after breakfast and dinner), six days later, 8.3 mg/dL before): 13.4 mg/dL | rise of serum uric acid value ([7]; inosine 2 g/day alone): 5.1 mg/dL | rise of serum uric acid value per 1 g/day administration of inosine ([7]; inosine alone): 2.55 mg/dL | ATP in erythrocytes (erythrocytes): ATP increased | symptoms of multiple sclerosis [10]: alleviates symptoms | serum uric acid value, highest observed ([8]; Group B: inosine 500 mg twice a day for 14 days): up to 8.1 mg/dL | rise of serum uric acid value on average ([8]; Group B: inosine 1 g per day, without febuxostat): 2.57 mg/dL
